{
  "source": "patent US20230157319A1",
  "about": "“SUPPLEMENTS AND COMPOSITIONS CONTAINING AMINO ACIDS AND IGF-1 AND METHODS OF USE” (PURETEIN BIOSCIENCE LLC, priority 2020, published 2023)",
  "system": "porcine satellite cells",
  "experiment": "myotube size of differentiated porcine satellite cells, 72 hour treatment",
  "type": "cell-based",
  "conditions": "for myotube size compared to the control treatment: each alone in DM: 5 ng/mL IGF-1, 4 mM L-glutamine, 10 mM L-lysine, 10 μM L-methionine, 72 hour, FIG. 1; for myotube size compared to the control treatment / myotube growth on addition to the combination: 1 mM L-leucine, 1 mM L-arginine; for useful inclusion (minimum amount required to produce the maximal growth response): titrated within the combination with 5 ng/mL active IGF-1, FIGS. 3-5; for myotube growth on addition to the combination: titrated 0.5-3 mM into 5 ng/mL IGF-1, 3 mM L-glutamine, FIGS. 6 and 7",
  "data": [
    {"compound": "N=C(N)NCCC[C@H](N)C(=O)O", "note": "[L-arginine]", "values": [
      {"measurement": "myotube size compared to the control treatment", "result": "more profound growth response of myotubes"},
      {"measurement": "useful inclusion (minimum amount required to produce the maximal growth response)", "result": 1, "unit": "mM"}
    ]},
    {"compound": "NC(=O)CC[C@H](N)C(=O)O", "note": "[L-glutamine]", "values": [
      {"measurement": "myotube size compared to the control treatment", "result": "more profound growth response of myotubes"},
      {"measurement": "useful inclusion (minimum amount required to produce the maximal growth response)", "result": 3, "unit": "mM"}
    ]},
    {"compound": "CC(C)C[C@H](N)C(=O)O", "note": "[L-leucine]", "values": [
      {"measurement": "myotube size compared to the control treatment", "result": "more profound growth response of myotubes"},
      {"measurement": "useful inclusion (minimum amount required to produce the maximal growth response)", "result": 1, "unit": "mM"}
    ]},
    {"compound": "NCCCC[C@H](N)C(=O)O", "note": "[L-lysine]", "values": [
      {"measurement": "myotube size compared to the control treatment", "result": "increase the myotube size compared to the control treatment"},
      {"measurement": "myotube growth on addition to the combination", "result": "did not provide any increase in myotube growth"}
    ]},
    {"compound": "CSCC[C@H](N)C(=O)O", "note": "[L-methionine]", "values": [
      {"measurement": "myotube size compared to the control treatment", "result": "increase the myotube size compared to the control treatment"},
      {"measurement": "myotube growth on addition to the combination", "result": "did not provide any increase in myotube growth"}
    ]},
    {"compound": "insulin-like growth factor 1 [IGF-1]", "values": [
      {"measurement": "myotube size compared to the control treatment", "result": "increase the myotube size compared to the control treatment"}
    ]}
  ]
}
